In BindingDB's records for PubMed 7616416 (Third Tokushima Institute of New Drug Research, 1995):
Where “and” joins values, the source holds several entries; their conditions need not be identical. Identical values can stand only once.

Target: D(2) dopamine receptor (Rattus norvegicus, UniProt P61169)
Sequence (P61169 whole entry): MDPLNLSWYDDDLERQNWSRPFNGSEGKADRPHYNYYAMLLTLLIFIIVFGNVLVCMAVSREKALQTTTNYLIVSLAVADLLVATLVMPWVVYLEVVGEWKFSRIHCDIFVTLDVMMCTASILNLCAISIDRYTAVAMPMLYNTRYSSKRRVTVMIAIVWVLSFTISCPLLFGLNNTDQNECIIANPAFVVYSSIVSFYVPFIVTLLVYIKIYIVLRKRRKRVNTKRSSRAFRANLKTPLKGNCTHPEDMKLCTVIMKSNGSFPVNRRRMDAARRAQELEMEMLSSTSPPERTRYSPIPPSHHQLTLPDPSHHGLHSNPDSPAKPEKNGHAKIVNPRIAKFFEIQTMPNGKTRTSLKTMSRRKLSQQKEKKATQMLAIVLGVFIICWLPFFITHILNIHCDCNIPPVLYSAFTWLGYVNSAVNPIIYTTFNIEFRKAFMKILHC

Cc1cccc(N2CCN(CCCOc3ccc4ccc(=O)[nH]c4c3)CC2)c1C [NSC_163839]
Ki: 0.0198 µM and 0.018 µM and 0.0098 µM
